Literature values in patent US5977138A, “Ether muscarinic antagonists” (Schering Corporation, priority 1997, dated 1999).

System: m2 muscarinic receptor
Conditions: Baumgold et al., Eur. J. of Pharmacol., 251 (1994) 315-317

Compound: C[C@H]1CC[C@@H]2N(C1)C[C@H]1[C@@H]3C[C@H]4[C@@H](CC(=O)[C@H]5C[C@@H](Cl)CC[C@@]54C)[C@@H]3CC[C@H]1[C@]2(C)O [3-α-chloroimperialine]
- m2 selective muscarinic antagonism: highly selective m2 muscarinic antagonist
